# Source: patent US12415785B2, “Compound modulators of sting” (CTXT PTY LTD, priority 2019, dated 2025)
# Target: human STING (WT) (Homo sapiens (Human), UniProt Q86WV6, H232R)
# Assay: Surface plasmon resonance (SPR), STING (WT)
# Assay type: binding
# Conditions: biotinylated STING on streptavidin chip, 8° C.
# Experimental: Biophysical experiments were performed with three different recombinant human STING protein variants designated according to allelic nomenclature of Yi et al., (2013). Codon optimized DNA sequences (for expression in Escherichia coli) encoding amino acid residues 149 to 345 (Swiss Prot Q86WV6) of human STING (WT), human STING (HAQ) and human STING (R232H) were synthesised by GenScript USA Inc (Piscataway, New Jersey, USA). These were ligated into a modified pET43a E. coli expression vector designed to encode N-terminal His tag followed by tobacco etch virus protease (TEV) cleavage site and a STING gene sequence. The resulting protein sequences for the three allelic variants are listed below:
# Binding interactions of ligands with STING proteins were quantified using Surface Plasmon Resonance (SPR) with a minimally biotinylated STING protein immobilized on a streptavidin chip surface. […] Minimal biotinylation of purified huSTING proteins was performed using a previously described methodology (Chhabra 2012). Briefly, approximately 20 nmol of recombinant STING protein in 1×TBS buffer (25 mM Tris-HCl, pH 7.5, 150 mM NaCl, 5 mM DTT) was mixed with of EZ-Link™ Sulfo-NHS-LC-LC-Biotin (Thermofisher Scientific, cat #21338) at a molar ratio of 1 to 0.6 and incubated on ice for 2 hours. To remove any unreacted biotin reagent, protein/biotin mixture was passed through a Superdex 75 (10/300 GL) column equilibrated with 10 mM HEPES, pH7.4, 150 mM NaCl, 5 mM DTT, 5%[v/v] glycerol. A protein peak containing biotinylated huSTING protein was collected and stored in aliquots at −80° C.
# Streptavidin was simultaneously immobilized in all four channels of a CM5 sensor chip docked in a Biacore instrument (either Biacore S200 or Biacore T200, GE Healthcare) as described previously (Zender 2013). Minimally biotinylated STING protein was captured onto a streptavidin coated chip surface at 8° C. in SPR binding buffer (50 mM HEPES, pH 7.4, 150 mM NaCl, 2%[v/v] DMSO) by gradually injecting in a single channel at a constant flow-rate of 2 μL/min until desired capture level was achieved, typically 3000 to 7000 RU (1 RU=1 pg/mm^2).
# All binding experiments were performed at 8° C. in SPR binding buffer. To determine binding affinity, compound interaction with immobilized STING protein was analysed using dose-response experiments. Fresh 10 mM DMSO solutions of compound were diluted directly into SPR binding buffer typically to a concentration of 50 μM and then further diluted 2-fold or 3-fold aiming for either a 5- or 7-point concentration series range. Each ligand concentration series was injected at a constant flow rate of 60 μL/min with a 90 second association and a 180 second dissociation time. These were modified for compounds with longer residence times, so that curves could reach steady-state, or so that compound would be fully dissociated before the subsequent injection.
# Scrubber 2 (www.biologic.com.au) was utilized for data processing, where signals were referenced against the blank surface (streptavidin+D-biotin) and further corrected for DMSO refractive index change and then “double-referenced” using a buffer-blank injection (Papalia 2006). Responses were fitted to either a 1:1 steady-state affinity model or a 1:1 kinetic model (that included a mass-transport component), available within Scrubber.
# human STING (WT), sequence (Q86WV6 other isoform, or with tags, fused parts or gaps, stated change not applied): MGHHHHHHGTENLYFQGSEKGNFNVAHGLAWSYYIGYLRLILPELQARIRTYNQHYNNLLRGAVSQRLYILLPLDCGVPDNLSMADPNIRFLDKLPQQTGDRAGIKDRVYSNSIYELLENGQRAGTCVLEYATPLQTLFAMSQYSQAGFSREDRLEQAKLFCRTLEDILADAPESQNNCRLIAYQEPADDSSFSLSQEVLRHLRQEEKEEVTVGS
row,Kd [µM],Structure (SMILES)
1,0.077,"COc1c(C(N)=O)ccc2c1nc(-c1c(Cl)cccc1C(=O)O)n2CCn1c(-c2c(Cl)cccc2C(=O)O)nc2c(OC)c(C(N)=O)ccc21 (racemic) [Example 22, 2,2′-(Ethane-1,2-diylbis(5-carbamoyl-4-methoxy-1H-benzo[d]imidazole-1,2-diyl))bis(3-chlorobenzoic acid)]"
2,0.034,"COc1c(C(N)=O)ccc2c1nc(-c1c(I)cccc1C(=O)O)n2CCn1c(-c2c(I)cccc2C(=O)O)nc2c(OC)c(C(N)=O)ccc21 (single isomer, unassigned) [Example 19.1, 2,2′-(Ethane-1,2-diylbis(5-carbamoyl-4-methoxy-1H-benzo[d]imidazole-1,2-diyl))bis(3-iodobenzoic acid)]"
3,0.043,"COc1c(C(N)=O)ccc2c1nc(-c1c(Cl)cccc1-c1nn[nH]n1)n2CCn1c(-c2c(Cl)cccc2-c2nn[nH]n2)nc2c(OC)c(C(N)=O)ccc21 (single isomer, unassigned) [Example 23, 1,1′-(Ethane-1,2-diyl)bis(2-(2-chloro-6-(2H-tetrazol-5-yl)phenyl)-4-methoxy-1H-benzo[d]imidazole-5-carboxamide)]"
4,200,"COc1c(C(N)=O)ccc2c1nc(-c1ccc(Cl)cc1C(=O)O)n2CCn1c(-c2ccc(Cl)cc2C(=O)O)nc2c(OC)c(C(N)=O)ccc21 [Example 1, 6,6′-(Ethane-1,2-diylbis(5-carbamoyl-4-methoxy-1H-benzo[d]imidazole-1,2-diyl))bis(3-chlorobenzoic acid)]"
5,80,"NC(=O)c1ccc2c(c1)nc(-c1ccccc1C(=O)O)n2CCn1c(-c2ccccc2C(=O)O)nc2cc(C(N)=O)ccc21 [Example 2, 2,2′-(Ethane-1,2-diylbis(5-carbamoyl-1H-benzo[d]imidazole-1,2-diyl))dibenzoic acid]"
6,> 10,"COc1c(C(N)=O)ccc2c1nc(-c1ccccc1C(=O)O)n2CCn1c(-c2ccccc2C(=O)O)nc2c(OC)c(C(N)=O)ccc21 [Example 4, 2,2′-(Ethane-1,2-diylbis(5-carbamoyl-4-methoxy-1H-benzo[d]imidazole-1,2-diyl))dibenzoic acid]"
7,30,"NC(=O)c1ccc2c(c1)nc(-c1ccccc1-c1nn[nH]n1)n2CCn1c(-c2ccccc2-c2nnn[nH]2)nc2cc(C(N)=O)ccc21 [Example 5, 2-(2-(1H-Tetrazol-5-yl)phenyl)-1-(2-(2-(2-(2H-tetrazol-5-yl)phenyl)-5-carbamoyl-1H-benzo[d]imidazol-1-yl)ethyl)-1H-benzo[d]imidazole-5-carboxamide]"
8,40,"COc1c(C(N)=O)ccc2c1nc(-c1ccccc1-c1nn[nH]n1)n2CCn1c(-c2ccccc2-c2nn[nH]n2)nc2c(OC)c(C(N)=O)ccc21 [Example 6, 1,1′-(Ethane-1,2-diyl)bis(2-(2-(2H-tetrazol-5-yl)phenyl)-4-methoxy-1H-benzo[d]imidazole-5-carboxamide)]"
9,40,"COc1c(C(N)=O)ccc2c1nc(-c1ccc(Cl)cc1-c1nn[nH]n1)n2CCn1c(-c2ccc(Cl)cc2-c2nn[nH]n2)nc2c(OC)c(C(N)=O)ccc21 [Example 9, 1,1′-(Ethane-1,2-diyl)bis(2-(4-chloro-2-(2H-tetrazol-5-yl)phenyl)-4-methoxy-1H-benzo[d]imidazole-5-carboxamide)]"
10,5.86,"COc1c(C(N)=O)ccc2c1nc(-c1c(F)cccc1C(=O)O)n2CCn1c(-c2c(F)cccc2C(=O)O)nc2c(OC)c(C(N)=O)ccc21 [Example 10, 2,2′-(Ethane-1,2-diylbis(5-carbamoyl-4-methoxy-1H-benzo[d]imidazole-1,2-diyl))bis(3-fluorobenzoic acid)]"
11,1.08,"COc1c(C(N)=O)ccc2c1nc(-c1c(F)cc(Cl)cc1C(=O)O)n2CCn1c(-c2c(F)cc(Cl)cc2C(=O)O)nc2c(OC)c(C(N)=O)ccc21 [Example 11, 2,2′-(ethane-1,2-diylbis(5-carbamoyl-4-methoxy-1H-benzo[d]imidazole-1,2-diyl))bis(5-chloro-3-fluorobenzoic acid)]"
12,1.52,"COc1c(C(N)=O)ccc2c1nc(-c1c(F)cc(F)cc1C(=O)O)n2CCn1c(-c2c(F)cc(F)cc2C(=O)O)nc2c(OC)c(C(N)=O)ccc21 [Example 16, 2,2′-(Ethane-1,2-diylbis(5-carbamoyl-4-methoxy-1H-benzo[d]imidazole-1,2-diyl))bis(3,5-difluorobenzoic acid)]"
13,9.5,"COc1c(C(N)=O)ccc2c1nc(-c1ccc(Cl)cc1-c1n[nH]c(=O)o1)n2CCn1c(-c2ccc(Cl)cc2-c2n[nH]c(=O)o2)nc2c(OC)c(C(N)=O)ccc21 [Example 17, 1,1′-(Ethane-1,2-diyl)bis(2-(4-chloro-2-(5-oxo-4,5-dihydro-1,3,4-oxadiazol-2-yl)phenyl)-4-methoxy-1H-benzo[d]imidazole-5-carboxamide)]"
14,2.01,"COc1c(C(N)=O)cc(F)c2c1nc(-c1c(F)cc(F)cc1C(=O)O)n2CCn1c(-c2c(F)cc(F)cc2C(=O)O)nc2c(OC)c(C(N)=O)cc(F)c21 [Example 18, 2,2′-(Ethane-1,2-diylbis(5-carbamoyl-7-fluoro-4-methoxy-1H-benzo[d]imidazole-1,2-diyl))bis(3,5-difluorobenzoic acid)]"
15,96,"COc1c(C(N)=O)cc(F)c2c1nc(-c1ccc(Cl)cc1C(=O)O)n2CCn1c(-c2ccc(Cl)cc2C(=O)O)nc2c(OC)c(C(N)=O)cc(F)c21 [Example 20, 6,6′-(Ethane-1,2-diylbis(5-carbamoyl-7-fluoro-4-methoxy-1H-benzo[d]imidazole-1,2-diyl))bis(3-chlorobenzoic acid)]"
16,5.38,"COC(=O)c1c(Br)cccc1-c1nc2c(OC)c(C(N)=O)ccc2n1CCn1c(-c2cccc(Br)c2C(=O)OC)nc2c(OC)c(C(N)=O)ccc21 [Example 21, Dimethyl 6,6′-(ethane-1,2-diylbis(5-carbamoyl-4-methoxy-1H-benzo[d]imidazole-1,2-diyl))bis(2-bromobenzoate)]"
17,102,"COc1c(C(N)=O)ccc2c1nc(-c1ccc(Cl)cc1-c1cn[nH]n1)n2CCn1c(-c2ccc(Cl)cc2-c2cn[nH]n2)nc2c(OC)c(C(N)=O)ccc21 [Example 24, 1,1′-(Ethane-1,2-diyl)bis(2-(4-chloro-2-(2H-1,2,3-triazol-4-yl)phenyl)-4-methoxy-1H-benzo[d]imidazole-5-carboxamide)]"
18,250,"COc1c(C(N)=O)ccc2c1nc(-c1ccc(C)cc1C(=O)O)n2CCn1c(-c2ccc(C)cc2C(=O)O)nc2c(OC)c(C(N)=O)ccc21 [Example 25, 6,6′-(Ethane-1,2-diylbis(5-carbamoyl-4-methoxy-1H-benzo[d]imidazole-1,2-diyl))bis(3-methylbenzoic acid)]"
19,> 40,"COc1c(C(N)=O)ccc2c1nc(-c1cc(C)ccc1C(=O)O)n2CCn1c(-c2cc(C)ccc2C(=O)O)nc2c(OC)c(C(N)=O)ccc21 [Example 26, 2,2′-(Ethane-1,2-diylbis(5-carbamoyl-4-methoxy-1H-benzo[d]imidazole-1,2-diyl))bis(4-methylbenzoic acid)]"
20,126,"COc1c(C(N)=O)ccc2c1nc(-c1cnccc1C(=O)O)n2CCn1c(-c2cnccc2C(=O)O)nc2c(OC)c(C(N)=O)ccc21 [Example 30, 3,3′-(Ethane-1,2-diylbis(5-carbamoyl-4-methoxy-1H-benzo[d]imidazole-1,2-diyl))diisonicotinic acid]"
21,88,"COc1c(C(N)=O)ccc2c1nc(-c1ncc(Cl)cc1C(=O)O)n2CCn1c(-c2ncc(Cl)cc2C(=O)O)nc2c(OC)c(C(N)=O)ccc21 [Example 31, 2,2′-(Ethane-1,2-diylbis(5-carbamoyl-4-methoxy-1H-benzo[d]imidazole-1,2-diyl))bis(5-chloronicotinic acid)]"

row,Structure (SMILES),Kd [µM]
1,"COc1c(C(N)=O)ccc2c1nc(-c1cc(F)c(F)cc1C(=O)O)n2CCn1c(-c2cc(F)c(F)cc2C(=O)O)nc2c(OC)c(C(N)=O)ccc21 [Example 15, 6,6′-(Ethane-1,2-diylbis(5-carbamoyl-4-methoxy-1H-benzo[d]imidazole-1,2-diyl))bis(3,4-difluorobenzoic acid)]",1000
